Consider eight compounds from patent publication US12522580B2, “Fluorine-containing pyrimidine compounds, harmful fungus control agent, and method for producing fluorine-containing pyrimidine compounds” (UNIMATEC CO., LTD., priority 2021, dated 2026).

The structures appear in SMILES notation.

Assay [1] deals with Gray mold germs (Botrytis cinerea, strain 2018105). Put plainly: Evaluation test for gray mold (mycelial growth on PDA medium). It is filed as cell-based. As to conditions: final concentration 500 ppm in PDA medium; mycelia diameter after two days at 27° C.; average of 3. The method, then:
The fluorine-containing pyrimidine compound prepared in Example 1, 2, 3, 4, 12 or 16 was dissolved in DMSO and diluted to a concentration of 50000 ppm. To 3 ml of a dissolved PDA medium, 30 μL of diluted DMSO solution each was added and stirred with a pipette. The mixture was placed in a well of a 6-well plate and allowed to solidify (final concentration: 500 ppm, repeated 3 times each). Gray mold germs (Botrytis cinerea, strain 2018105) grown in a PDA medium was cut out together with the medium with a biopsy punch having a diameter of 0.4 cm, and placed on the center of the PDA medium in the 6-well plate containing the DMSO solution so as to be grown at 27° C. After two days, the diameters of mycelia were measured and the control value was calculated. The control value was calculated according to the following formula. In the formula described below, “untreated” represents PDA medium to which only DMSO was added as the test solution. [formula]

The subject of assay [2] is cucumber powdery mildew. Put plainly: Evaluation test for powdery mildew of cucumbers (cucumber leaf disc). It is filed as in vivo. The conditions noted are these: blotch area after 12 days, 25° C. The method, then:
A fluorine-containing pyrimidine compound prepared in Examples 12, 13 or 15 was dissolved in acetone and diluted to a concentration of 500 ppm. Subsequently, a cucumber leaf disc (diameter 20 mm) was placed in a diluted acetone solution and completely wetted. The cucumber leaf disc was then placed so that the back surface of the cucumber leaf disc contacted a separately prepared plain agar medium, and air-dried. After air-drying, a cucumber powdery mildew spore suspension was evenly sprayed on the cucumber leaf disc and air-dried. The cucumber leaf disc was then allowed to stand in an incubator (25° C., illuminated for 12 hours), and after 12 days, the blotch area was examined to calculate the control value. The control value was calculated according to the following formula. In the following formula, “untreated” means that the cucumber leaf disc was wetted with only acetone as the test solution, and “untreated section” represents the corresponding section. A fluorine-containing pyrimidine compound prepared in Examples 12, 13 or 15 was dissolved in acetone and diluted to a concentration of 100 ppm. Subsequently, a cucumber leaf disc (diameter 20 mm) was placed in a diluted acetone solution and completely wetted. The cucumber leaf disc was placed so that the back surface of the cucumber leaf disc contacted a separately prepared plain agar medium, and air-dried. After air-drying, a cucumber powdery mildew spore suspension was evenly prayed on the cucumber leaf disc and air-dried. The cucumber leaf disc was then allowed to stand in an incubator (25° C., illuminated for 12 hours), and after 12 days, the blotch area was examined to calculate the control value. The control value was calculated according to the following formula. In the following formula, “untreated” means that the cucumber leaf disc was wetted with only acetone as the test solution, and “untreated section” represents the corresponding section. [formula] (Evaluation Test for Gray Mold (500 ppm))

With `COc1nc(-c2ccccn2)nc(Nc2ccc(C)cc2C)c1C(F)(F)F` [Example 12, 6-methoxy-N-(2,4-dimethylphenyl)-2-(2-pyridyl)-5-(trifluoromethyl)-4-pyrimidinamine], the Control value is reported as 94.3 in assay [1], 91.8 in assay [2] (100 ppm in acetone) and 100.0 in assay [2] (500 ppm in acetone).
`COc1nc(-c2ccccn2)nc(Nc2cccc(C)c2)c1C(F)(F)F` [Example 2, 6-methoxy-N-(3-methylphenyl)-2-(2-pyridyl)-5-(trifluoromethyl)-4-pyrimidinamine]: the Control value in assay [1] came out at 86.8.
`CCCCc1ccc(Nc2nc(-c3ccccn3)nc(OC)c2C(F)(F)F)cc1` [Example 3, N-(4-butylphenyl)-6-methoxy-2-(2-pyridyl)-5-(trifluoromethyl)-4-pyrimidinamine] returned a Control value in assay [1] of 76.9.
`COc1nc(-c2ccccn2)nc(Nc2ccccc2)c1C(F)(F)F` [Example 1, 6-methoxy-N-phenyl-2-(2-pyridyl)-5-(trifluoromethyl)-4-pyrimidinamine] showed a Control value in assay [1] of 90.5.
As for `COc1nc(-c2ccccn2)nc(Nc2ccc(C)c(C)c2)c1C(F)(F)F` [Example 4, 6-methoxy-N-(3,4-dimethylphenyl)-2-(2-pyridyl)-5-(trifluoromethyl)-4-pyrimidinamine], in assay [1], the Control value was 86.8.
Turning to `COc1nc(-c2ccccn2)nc(Nc2ccc(C)cc2)c1C(F)(F)F` [Example 15, 6-methoxy-N-(4-methylphenyl)-2-(2-pyridyl)-5-(trifluoromethyl)-4-pyrimidinamine], the Control value in assay [2] (100 ppm in acetone) and in assay [2] (500 ppm in acetone) was 100.0 throughout.
Turning to `FC(F)(F)c1c(Cl)nc(-c2ccccn2)nc1Nc1ccccc1` [Example 16, 6-chloro-N-phenyl-2-(2-pyridyl)-5-(trifluoromethyl)-4-pyrimidinamine], the Control value in assay [1] is given as 92.4.
With `COc1nc(-c2ccccn2)nc(Nc2ccc(Cl)cc2)c1C(F)(F)F` [Example 13, N-(4-chlorophenyl)-6-methoxy-2-(2-pyridyl)-5-(trifluoromethyl)-4-pyrimidinamine], the Control value in assay [2] (100 ppm in acetone) is recorded as 80.0; in assay [2] (500 ppm in acetone), 98.8.
